Test results from US20260224563A1, “CRYSTALLINE FORMS OF 6-(3-((5-CHLORO-2-METHOXYPYRIDINE)-3-SULFONAMIDO)-2,6-DIFLUOROPHENYL)-N-METHYLIMIDAZO[1,5-A]PYRAZINE-1-CARBOXAMIDE AND METHODS FOR USING THE SAME” (HIBERCELL, INC., priority 2023, published 2026).
Where two headings read alike, the source gives them in different places.

Assay: Multicenter, open-label, Phase 1a/b study of HC-7366 in subjects with advanced solid tumors (safety, PK)
Assay type: in vivo
Settings: for AUC(0-t) / Vd/F / Tmax / Cmax / half-life / % AUCextrap / CL/F / DAUC0-24 / DAUC0-last / DAUC0-∞ / DCmax / tlast / LR / AUC / AUC(0-inf): human; for AUC(0-t) / Vd/F / Tmax / Cmax / half-life / AUC / AUC(0-inf): plasma; for AUC(0-t) / Vd/F / Tmax / Cmax / half-life: po; for Vd/F: read-out: Vz/F; for LR: linearity ratio; for AUC: read-out: AUC0-τ
Excerpt: Identify the maximum tolerated dose (MTD) and/or recommended Phase 2 dose (RP2D) of HC-7366, and evaluate the safety, tolerability, and dose-limiting toxicities (DLTs) of HC-7366 using Form III of the potassium salt of the compound of formula (I) (see Example 6, also referred to within this example as HC-7366-K), in subjects with advanced solid tumors, including: • a. occurrence of DLTs • b. incidence and severity of treatment-emergent adverse events (TEAEs) and treatment related TEAEs according to National Cancer Institute Common Terminology Criteria for Adverse Events (NCI CTCAE) v 5.0 • c. incidence of TEAEs leading to premature discontinuation • d. incidence of laboratory abnormalities, based on NCI CTCAE grades of hematology, serum chemistry, and urinalysis test results • e. incidence of abnormalities observed in 12 lead ECG parameters • f. incidence of abnormalities observed in vital signs measurements
Determine plasma concentration and pharmacokinetic (PK) parameters following treatment with HC-7366 using Form III of the potassium salt of the compound of formula (I) (see Example 6, also referred to within this example as HC-7366-K).
Preliminarily assess the potential antitumor activity of HC-7366 in terms of response rate, disease stabilization, and survival outcomes by assessing: • a. Overall response rate (ORR) to HC-7366 using response evaluation criteria in solid tumors (iRECIST) • b. Duration of response (DOR) to HC-7366 using iRECIST • c. Time to treatment failure (TTF) • d. Progression free survival (PFS) using iRECIST • e. Overall survival (OS)
This is a first in human, multicenter, open label, Phase 1a and 1b dose-escalation and dose-expansion study to establish the maximum tolerated dose, recommended Phase 2 dose, and evaluate the safety and tolerability of QD oral dosing of HC 7366 in a dose escalating fashion in subjects with advanced solid tumors. Up to 40 subjects were enrolled into the Phase 1a dose-escalation part of the study. The study was conducted in the United States at approximately 7 to 10 sites.
Every effort was made to ensure approximately 50% of all subjects enrolled into Phase 1a of this study are subjects with the tumors of special interest including squamous cell carcinoma of the head and neck, colorectal cancer, non-small cell lung cancer, and transitional cell carcinoma of the bladder. […] All subjects in Phase 1b enrolled with clear cell renal cell carcinoma. The Phase 1a study followed a traditional 3+3 design. The starting dose level was 10 mg QD, escalating to 20, 40, 75, 125, and 150 mg QD as safety allows. All doses were administered in the fasting state with water at least 1 hour before food or at least 2 hours after food.
The Phase 1b dose-expansion was at a single dose level of 75 mg based on the safety, tolerability, PK/PD results from Phase 1a to obtain additional safety and preliminary efficacy information. Up to 30 subjects were enrolled in the Phase 1b portion of the study at the 75 mg dose. Replacement patients were enrolled as necessary. Subjects were dosed until unacceptable toxicity, disease progression per immune-related Response Evaluation Criteria in Solid Tumors, discontinuation of treatment for other protocol allowed reason (eg, subject refusal), any other administrative reasons, or after 2 years of treatment, whichever occurs first.
For scheduling purposes, dosing in Phase 1a and 1b occurred in 3 week cycles and computed tomography scans were conducted once every 6 weeks from Cycle 1/Day 1, with the first postbaseline scan after 6 weeks of dosing (precycle 3) until confirmed disease progression, death, start of new anticancer therapy, withdrawal of consent, or end of study, whichever occurs first.
Subjects of Phase 1a and 1b spent Cycle 1/Day 1 (C1D1) in the clinic followed by an optional overnight stay for safety monitoring and PK sampling. Subjects were hospitalized (optional) for administration of the first 2 doses: C1D1 and Cycle 1/Day 2 (C1D2). […]

[1] = 75 mg, multiple once daily oral 75 mg (N = 7), Cycle 1 Day 21, geometric mean
[2] = 75 mg, single oral dose 75 mg (N = 10), Cycle 1 Day 1, geometric mean
[3] = 125 mg, multiple once daily oral 125 mg (N = 1), Cycle 1 Day 21
[4] = 125 mg, single oral dose 125 mg (N = 6), Cycle 1 Day 1, geometric mean
[5] = single oral dose 10 mg (N = 3), Cycle 1 Day 1, geometric mean
[6] = single oral dose 20 mg (N = 3), Cycle 1 Day 1, geometric mean
[7] = single oral dose 40 mg (N = 11), Cycle 1 Day 1, geometric mean
[8] = single oral dose 75 mg (N = 10), Cycle 1 Day 1, geometric mean
[9] = single oral dose 125 mg (N = 6), Cycle 1 Day 1, geometric mean
[10] = multiple once daily oral 10 mg (N = 3), Cycle 1 Day 21, geometric mean
[11] = multiple once daily oral 20 mg (N = 3), Cycle 1 Day 21, geometric mean
[12] = multiple once daily oral 40 mg (N = 8), Cycle 1 Day 21, geometric mean
[13] = multiple once daily oral 75 mg (N = 7), Cycle 1 Day 21, geometric mean
[14] = multiple once daily oral 125 mg (N = 1), Cycle 1 Day 21

CNC(=O)c1ncn2cc(-c3c(F)ccc(NS(=O)(=O)c4cc(Cl)cnc4OC)c3F)ncc12 [HC-7366, 6-(3-((5-chloro-2-methoxypyridine)-3-sulfonamido)-2,6-difluorophenyl)-N-methylimidazo[1,5-a]pyrazine-1-carboxamide]
AUC(0-t) (40 mg, single oral dose 40 mg (N = 11), Cycle 1 Day 1, geometric mean, read-out: AUC0-24): 52900 ng·h/mL
AUC(0-t) (40 mg, single oral dose 40 mg (N = 11), Cycle 1 Day 1, geometric mean, read-out: AUC0-last): 52900 ng·h/mL
Vd/F (40 mg, single oral dose 40 mg (N = 11), Cycle 1 Day 1, geometric mean): 10.5 L
Tmax (40 mg, single oral dose 40 mg (N = 11), Cycle 1 Day 1, median): 2 h
Cmax [1]: 14300 ng/mL
half-life [1]: 17.8 h
AUC(0-t) (75 mg, multiple once daily oral 75 mg (N = 7), Cycle 1 Day 21, geometric mean, read-out: AUC0-last): 166000 ng·h/mL
Vd/F [1]: 9.51 L
Tmax (75 mg, multiple once daily oral 75 mg (N = 7), Cycle 1 Day 21, median): 2 h
Cmax [2]: 10200 ng/mL
half-life [2]: 15.2 h
AUC(0-t) (75 mg, single oral dose 75 mg (N = 10), Cycle 1 Day 1, geometric mean, read-out: AUC0-24): 100000 ng·h/mL
AUC(0-t) (75 mg, single oral dose 75 mg (N = 10), Cycle 1 Day 1, geometric mean, read-out: AUC0-last): 100000 ng·h/mL
Vd/F [2]: 11.2 L
Tmax (75 mg, single oral dose 75 mg (N = 10), Cycle 1 Day 1, median): 2 h
Cmax [3]: 38200 ng/mL
half-life [3]: 16.5 h
AUC(0-t) (125 mg, multiple once daily oral 125 mg (N = 1), Cycle 1 Day 21, read-out: AUC0-last): 260000 ng·h/mL
Vd/F [3]: 7.4 L
Cmax [4]: 18800 ng/mL
half-life [4]: 14 h
AUC(0-t) (125 mg, single oral dose 125 mg (N = 6), Cycle 1 Day 1, geometric mean, read-out: AUC0-24): 216000 ng·h/mL
AUC(0-t) (125 mg, single oral dose 125 mg (N = 6), Cycle 1 Day 1, geometric mean, read-out: AUC0-last): 204000 ng·h/mL
Vd/F [4]: 7.85 L
Tmax (125 mg, single oral dose 125 mg (N = 6), Cycle 1 Day 1, median): 2 h
% AUCextrap [5]: 22.7%
CL/F [5]: 0.508 L/h
DAUC0-24 [5]: 1510 ng·h/mL/mg
DAUC0-last [5]: 1510 ng·h/mL/mg
DAUC0-∞ [5]: 1970 ng·h/mL/mg
DCmax [5]: 145 ng/mL/mg
tlast (single oral dose 10 mg (N = 3), Cycle 1 Day 1, median): 24.00 h
% AUCextrap [6]: 17.9%
CL/F [6]: 0.544 L/h
DAUC0-24 [6]: 1440 ng·h/mL/mg
DAUC0-last [6]: 1440 ng·h/mL/mg
DAUC0-∞ [6]: 1840 ng·h/mL/mg
DCmax [6]: 116 ng/mL/mg
tlast (single oral dose 20 mg (N = 3), Cycle 1 Day 1, median): 24.00 h
% AUCextrap [7]: 31.0%
CL/F [7]: 0.491 L/h
DAUC0-24 [7]: 1320 ng·h/mL/mg
DAUC0-last [7]: 1320 ng·h/mL/mg
DAUC0-∞ [7]: 2040 ng·h/mL/mg
DCmax [7]: 113 ng/mL/mg
tlast (single oral dose 40 mg (N = 11), Cycle 1 Day 1, median): 24.00 h
% AUCextrap [8]: 30.2%
CL/F [8]: 0.508 L/h
DAUC0-24 [8]: 1340 ng·h/mL/mg
DAUC0-last [8]: 1340 ng·h/mL/mg
DAUC0-∞ [8]: 1970 ng·h/mL/mg
DCmax [8]: 136 ng/mL/mg
tlast (single oral dose 75 mg (N = 10), Cycle 1 Day 1, median): 24.00 h
% AUCextrap [9]: 33.6%
CL/F [9]: 0.390 L/h
DAUC0-24 [9]: 1730 ng·h/mL/mg
DAUC0-last [9]: 1630 ng·h/mL/mg
DAUC0-∞ [9]: 2570 ng·h/mL/mg
DCmax [9]: 150 ng/mL/mg
tlast (single oral dose 125 mg (N = 6), Cycle 1 Day 1, median): 24.00 h
LR [10]: 1.11
LR [11]: 1.14
LR [12]: 1.11
LR [13]: 1.22
LR [14]: 0.759
subjects who discontinued treatment due to an AE (of 34 treated subjects, 10 to 125 mg cohorts): 5 subjects
AUC [10]: 21900 ng·h/mL
AUC [11]: 41900 ng·h/mL
AUC [12]: 99300 ng·h/mL
AUC [13]: 187000 ng·h/mL
AUC [14]: 401000 ng·h/mL
AUC(0-inf) [5]: 19700 ng·h/mL
AUC(0-inf) [6]: 36800 ng·h/mL
AUC(0-inf) [7]: 81500 ng·h/mL
AUC(0-inf) [8]: 148000 ng·h/mL
AUC(0-inf) [9]: 321000 ng·h/mL
